Where two headings read alike, the source gives them in different places.
Molecular target: T1, GCH-1 (Homo sapiens, UniProt P30793)
T1 sequence (P30793 1-250): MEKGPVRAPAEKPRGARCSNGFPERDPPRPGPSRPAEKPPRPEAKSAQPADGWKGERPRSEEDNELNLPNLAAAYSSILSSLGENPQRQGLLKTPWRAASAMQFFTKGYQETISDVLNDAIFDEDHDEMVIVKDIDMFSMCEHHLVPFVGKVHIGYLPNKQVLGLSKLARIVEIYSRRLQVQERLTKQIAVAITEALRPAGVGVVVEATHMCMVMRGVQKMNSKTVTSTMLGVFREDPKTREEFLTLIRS
Experiment: LC/MS assay monitoring GTP consumption and neopterin formation by GCH-1
Assay type: biochemical
Conditions: 2 μM GCH-1, 120 μM GTP, 1 hour at 37° C.
Protocol: This method is based on transformations known in the art (see, for example, Xie et al., J. Biol. Chem. 273(33):21091-21098, 1998). The LC-MS assay is carried out by the following steps.
(1) GCH-1 reaction • 2 μM GCH-1, 120 μM GTP, 1 hour incubation at 37° C. (2) Termination of GCH-1 reaction by de-phosphorylation • The reaction is stopped by the addition of excess alkaline phosphatase (2 units/sample) • 1 hour incubation at 37° C. (3) Oxidation of 7,8-dihydroneopterin to get a stabile final product • Oxidation with 0.1 M […] for 1 hour at 37° C. resulting in oxidation of 7,8-dihydroneopterin to neopterin • Termination of the oxidation reaction by addition of ascorbic acid
• Sample analysis using highly specific LC/MS methods to detect guanosine and neopterin in parallel • Data analysis and automated CRC fitting to get IC50 values

[1] = Table 8, LC/MS assay, read-out: IC50

| SMILES | IC50 [1] [µM] | IC50 (assay validation with known GCH-1 inhibitors, read-out: IC50 [μM] LC/MS assay) [µM] |
| --- | --- | --- |
| Cc1cn(C)c2nc(N)[nH]c(=O)c12 [Compound (40)] | > 400 |  |
| Nc1nc2[nH]ccc2c(=O)[nH]1 [Compound (37)] | 43 |  |
| Nc1nc2[nH]c(S)nc2c(=O)[nH]1 [8-mercaptoguanine, reference compound] |  | 5 |
| CCCSc1nc2c(=O)[nH]c(N)nc2n1C [Compound (4)] | 85 |  |
| Cn1c(=S)[nH]c2nc(N)[nH]c(=O)c21 [Compound (13)] | 76 |  |
| CCOc1ccccc1NC(=O)CSc1nc2c(O)nc(N)nc2[nH]1 [(56)] | 40 |  |
| Cn1ccc2c(=O)[nH]c(N)nc21 [Compound (38)] | 193 |  |
| COCCn1cnc2c(=O)[nH]c(N)nc21 [Compound (29)] | > 400 |  |

The remaining lines, values ahead:

| IC50 [1] [µM] | IC50 (assay validation with known GCH-1 inhibitors, read-out: IC50 [μM] LC/MS assay) [µM] | SMILES |
| --- | --- | --- |
| 14 |  | CCCSc1nc2c(=O)[nH]c(N)nc2[nH]1 [Compound (3)] |
| 39 |  | Nc1nc2[nH]c(SCC3CCOCC3)nc2c(=O)[nH]1 [(9)] |
| 25 |  | COCCSc1nc2c(=O)[nH]c(N)nc2[nH]1 [(6)] |
| 27 |  | Nc1nc2[nH]c(N)nc2c(=O)[nH]1 [(31)] |

Reference: US20120252791A1, “Heterocyclic GTP Cyclohydrolase 1 Inhibitors For the Treatment of Pain” (priority 2009, published 2012)
